In the NIST ThermoML archive (doi:10.1016/j.jct.2016.08.008):

How the values were obtained:
[1] = for viscosity / mass density: 101.33 kPa, Liquid; for viscosity: Falling or rolling sphere viscometry; for mass density: Vibrating tube method
[2] = Molar enthalpy of transition or fusion; settings: Crystal; DSC

CCCCCCCCCCCCn1cc[n+](C)c1.O=S(=O)([N-]S(=O)(=O)C(F)(F)F)C(F)(F)F
[1]
Settings	mass density [kg/m3]	viscosity [mPa·s]
298.15 K	1242.9	125
303.15 K	1238.8	–
308.15 K	1234.6	76.7
313.15 K	1230.4	–
318.15 K	1226.2	52.7
323.15 K	1222	–
328.15 K	1217.8	37
333.15 K	1213.6	–
338.15 K	1209.5	26.6
343.15 K	1205.3	–
348.15 K	1201.2	19.5
353.15 K	1197.1	–
358.15 K	1193	14.7
363.15 K	1188.9	–
368.15 K	1184.9	11.4

Settings	Normal melting temperature [°C]
[1], Crystal, DTA	19.2

Settings	Molar enthalpy of transition or fusion [kcal/mol]
[2]	8.6
